These results are taken from patent publication US4731451A, “N-((2-oxo-3(2H)benzothiazolyl)methyl)-2-chloroacetanilides” (Monsanto Company, priority 1980, dated 1988).

Molecules are shown by their SMILES.

Assay in all cases: Pre-emergent herbicidal activity (Table II)
Type in all cases: in vivo
Common to all, as to conditions: 2-3 weeks

One experiment relates to Canada Thistle. Here is the method: (§1) The pre-emergence tests are conducted as follows:
(§2) A good grade of top soil is placed in aluminum pans and compacted to a depth of three-eighths to one-half inch from the top of the pan. On the top of the soil is placed a predetermined number of seeds or vegetative propagules of various plant species. The soil required to level fill the pans after seeding or adding vegetative propagules is weighed into a pan. A known amount of the active ingredient applied in a solvent or as a wettable powder suspension and the soil are thoroughly mixed, and used as a cover layer for prepared pans. After treatment, the pans are moved into a greenhouse bench where they are watered from below as needed to give adequate moisture for germination and growth.
(§3) Approximately 2-3 weeks after seeding and treating, the plants are observed and the results recorded. The herbicidal rating is obtained by means of fixed scale based on the percent injury of each plant species. The ratings are defined as follows: […]
(§4) The plant species utilized in one set of tests, the data for which are shown in Table II, are identified by letter in accordance with the following legend: […]

The test system of a further experiment is Johnsongrass. Here is the method: as §1, §2, §3, §4
A further experiment concerns Smartweed. Here is the method:
as §1, §2, §3, §4

A further experiment deals with Quackgrass. Here is the method: as §1, §2, §3, §4
The next experiment has as its system Cocklebur. As to the method:
as §1, §2, §3, §4

The next experiment relates to Lambsquarters. As to the method:
as §1, §2, §3, §4

The subject of the next experiment is Velvetleaf. Here is the method:
as §1, §2, §3, §4

The test system of a further experiment is Barnyardgrass. Here is the method:
as §1, §2, §3, §4

A further experiment deals with Yellow Nutsedge. Here is the method:
as §1, §2, §3, §4

Another experiment has as its system Morningglory. As to the method:
as §1, §2, §3, §4

A further experiment deals with Downy Brome. As to the method: as §1, §2, §3, §4
Note: ranges in brackets are in %.

In the case of `CCC1=C(N(Cn2c(=O)sc3ccccc32)C(=O)CCl)C(CC)CCC1` (stereo not drawn) [Example 5, N--[(2-oxo-3(2H)--benzothiazolyl)methyl]-N--(2,6-diethyl-1-cyclohexen-1-yl)-2-chloro-acetamide], the Herbicidal rating in the experiment on Canada Thistle (5.6 kg/ha), in the experiment with Canada Thistle (11.2 kg/ha), in the experiment with Johnsongrass (5.6 kg/ha), in the experiment with Johnsongrass (11.2 kg/ha), in the experiment with Smartweed (5.6 kg/ha) and in the experiment on Smartweed (11.2 kg/ha) was 0 (0-24) in each case. The Herbicidal rating in the experiment with Quackgrass (5.6 kg/ha) is given as 0 (0-24); with Quackgrass (11.2 kg/ha), 0 (0-24); in the experiment on Cocklebur (5.6 kg/ha) it was 0 (0-24); with Cocklebur (11.2 kg/ha) it was 0 (0-24); in the experiment on Lambsquarters (5.6 kg/ha), 1 (25-49); in the experiment on Lambsquarters (11.2 kg/ha), 1 (25-49). Also, the Herbicidal rating with Velvetleaf (5.6 kg/ha) was 0 (0-24); with Velvetleaf (11.2 kg/ha), 0 (0-24); with Barnyardgrass (5.6 kg/ha) it was 1 (25-49); in the experiment on Barnyardgrass (11.2 kg/ha), 1 (25-49); in the experiment with Yellow Nutsedge (5.6 kg/ha) it was 0 (0-24); in the experiment on Yellow Nutsedge (11.2 kg/ha), 0 (0-24). The Herbicidal rating in the experiment with Morningglory (5.6 kg/ha), in the experiment with Morningglory (11.2 kg/ha), in the experiment with Downy Brome (5.6 kg/ha) and in the experiment with Downy Brome (11.2 kg/ha) was 0 (0-24) each time.

Consider `CC1=C(N(Cn2c(=O)sc3cc(Br)ccc32)C(=O)CCl)C(C)CCC1` (stereo not drawn) [Example 7, N--[(6-bromo-2-oxo-3(2H)--benzothiazolyl)methyl]-N--(2,6-dimethyl-1-cyclohexen-1-yl)-2-chloroacetamide], for which the Herbicidal rating in the experiment on Canada Thistle (5.6 kg/ha), in the experiment on Canada Thistle (11.2 kg/ha), in the experiment on Johnsongrass (5.6 kg/ha), with Johnsongrass (11.2 kg/ha), in the experiment on Smartweed (5.6 kg/ha) and in the experiment on Smartweed (11.2 kg/ha) was 0 (0-24) throughout. Also, the Herbicidal rating with Quackgrass (5.6 kg/ha) is recorded as 0 (0-24); with Quackgrass (11.2 kg/ha) it was 0 (0-24); in the experiment with Cocklebur (5.6 kg/ha) it was 0 (0-24); in the experiment with Cocklebur (11.2 kg/ha), 0 (0-24); in the experiment on Lambsquarters (5.6 kg/ha), 0 (0-24); in the experiment with Lambsquarters (11.2 kg/ha), 1 (25-49). Also, the Herbicidal rating is given as 0 (0-24) in the experiment on Velvetleaf (5.6 kg/ha); 0 (0-24) in the experiment with Velvetleaf (11.2 kg/ha); 1 (25-49) in the experiment with Barnyardgrass (5.6 kg/ha); 1 (25-49) in the experiment with Barnyardgrass (11.2 kg/ha); 0 (0-24) with Yellow Nutsedge (5.6 kg/ha); 0 (0-24) in the experiment with Yellow Nutsedge (11.2 kg/ha). The Herbicidal rating in the experiment with Morningglory (5.6 kg/ha), in the experiment on Morningglory (11.2 kg/ha), in the experiment with Downy Brome (5.6 kg/ha) and in the experiment on Downy Brome (11.2 kg/ha) was 0 (0-24) in each case.

In the case of `CCOc1ccc2c(c1)sc(=O)n2CN(C(=O)CCl)C1=C(C)C(C)CCC1` (stereo not drawn) [Example 8, N--[(6-ethoxy-2-oxo-3(2H)--benzothiazolyl)methyl]-N--(2,3-dimethyl-1-cyclohexen-1-yl)-2-chloroacetamide], the Herbicidal rating with Canada Thistle (5.6 kg/ha), in the experiment on Canada Thistle (11.2 kg/ha), in the experiment on Johnsongrass (5.6 kg/ha), with Johnsongrass (11.2 kg/ha), in the experiment on Smartweed (5.6 kg/ha) and in the experiment on Smartweed (11.2 kg/ha) was 0 (0-24) in each case. For the same compound, the Herbicidal rating in the experiment on Quackgrass (5.6 kg/ha), with Quackgrass (11.2 kg/ha), with Cocklebur (5.6 kg/ha), with Lambsquarters (5.6 kg/ha), in the experiment with Lambsquarters (11.2 kg/ha) and with Velvetleaf (5.6 kg/ha) was 0 (0-24) throughout. The Herbicidal rating in the experiment with Velvetleaf (11.2 kg/ha) was 0 (0-24); with Barnyardgrass (5.6 kg/ha), 1 (25-49); in the experiment on Barnyardgrass (11.2 kg/ha), 0 (0-24); in the experiment on Yellow Nutsedge (5.6 kg/ha), 0 (0-24); in the experiment on Yellow Nutsedge (11.2 kg/ha), 0 (0-24); in the experiment with Morningglory (5.6 kg/ha) it was 0 (0-24). Moreover, the Herbicidal rating in the experiment with Morningglory (11.2 kg/ha), in the experiment with Downy Brome (5.6 kg/ha) and with Downy Brome (11.2 kg/ha) was 0 (0-24) in each case.

With `CC1=C(N(Cn2c(=O)oc3ccccc32)C(=O)CCl)C(C)CCC1` (stereo not drawn) [Example 11, N--[(2-oxo-3(2H)--benzoxazolyl)methyl]-N--(2,6-dimethyl-1-cyclohexen-1-yl)-2-chloro-amide], the Herbicidal rating in the experiment with Canada Thistle (5.6 kg/ha), with Canada Thistle (11.2 kg/ha), with Johnsongrass (5.6 kg/ha), with Johnsongrass (11.2 kg/ha), with Smartweed (5.6 kg/ha) and with Smartweed (11.2 kg/ha) was 0 (0-24) each time. Moreover, the Herbicidal rating with Quackgrass (5.6 kg/ha) was 1 (25-49); in the experiment with Quackgrass (11.2 kg/ha), 3 (75-100); in the experiment on Cocklebur (5.6 kg/ha) it was 0 (0-24); with Cocklebur (11.2 kg/ha), 0 (0-24); in the experiment on Lambsquarters (5.6 kg/ha), 2 (50-74); in the experiment with Lambsquarters (11.2 kg/ha), 1 (25-49). Moreover, the Herbicidal rating in the experiment with Velvetleaf (5.6 kg/ha) is given as 0 (0-24); in the experiment with Velvetleaf (11.2 kg/ha), 0 (0-24); with Barnyardgrass (5.6 kg/ha), 3 (75-100); in the experiment on Barnyardgrass (11.2 kg/ha), 3 (75-100); in the experiment with Yellow Nutsedge (5.6 kg/ha), 3 (75-100); with Yellow Nutsedge (11.2 kg/ha), 1 (25-49). Further, the Herbicidal rating in the experiment with Morningglory (5.6 kg/ha) was 0 (0-24); with Morningglory (11.2 kg/ha), 0 (0-24); with Downy Brome (5.6 kg/ha), 3 (75-100); in the experiment with Downy Brome (11.2 kg/ha), 3 (75-100).
